Patent publication US4808584A, “Quinolinecarboxylic acid derivatives and antibacterial agent containing the same” (Kanebo, Ltd., priority 1987, dated 1989)
≈ marks a conversion by molar mass, not a printed value. Where a name gives a salt, the structure may show the parent alone. Read-outs that look alike come from different tables or passages of the source.

Experiments:
Experiment in all cases: Minimum inhibitory concentration (MIC)
Format in all cases: cell-based
[1] = tested on: Acinetobacter calcoaceticus AC 54; conditions: for MIC: Acinetobacter calcoaceticus, AC54, Acinetobacter calcoaceticus AC 54, Gram -
Experimental: (§1) The compounds of the present invention (A, C, E, F, G, H and I) and ofloxacin as control were dissolved in 0.1N aqueous potassium hydroxide to prepare a solution of 5000 μg/ml in concentration. The compounds of the present invention (B, D and J) were dissolved in sterilized distilled water to prepare a solution of 5000 μg/ml in concentration. Each solution was diluted with sterilized distilled water to prepare a standard solution with a concentration of each test compound: 1000 μg/ml. The test was carried out by a method approved by Japan Society of Chemotherapy [cf. Chemotherapy, 29, 76-79 (1981)(TOKYO)].

[2] = tested on: Bacillus subtilis ATCC 6633; conditions: ATCC6633; Bacillus subtilis ATCC 6633, Gram +; read-out: Minimum inhibitory concentration (MIC)
Experimental: as §1

[3] = tested on: Citrobacter freundii NIHJ 10018-68; conditions: NIHJ10018; Citrobacter freundii NIHJ 10018-68, Gram -
Experimental: as §1

[4] = tested on: Enterobacter aerogenes ATCC 13048; conditions: for MIC: Klebsiella aerogenes, ATCC13048, Enterobacter aerogenes ATCC 13048, Gram -
Experimental: as §1

[5] = tested on: Enterobacter cloacae 963; conditions: Enterobacter cloacae 963, Gram -
Experimental: as §1

[6] = tested on: Escherichia coli KC-14; conditions: KC14; Escherichia coli KC-14, Gram -
Experimental: as §1

[7] = tested on: Escherichia coli NIHJ JC-2; conditions: NIHJJC2; Escherichia coli NIHJ JC-2, Gram -
Experimental: as §1

[8] = tested on: Micrococcus luteus ATCC 9341; conditions: ATCC9341; Micrococcus luteus ATCC 9341, Gram +
Experimental: as §1

[9] = tested on: Morganella morganii IFO 3848; conditions: IFO3848; Morganella morganii IFO 3848, Gram -
Experimental: as §1

[10] = tested on: Proteus mirabilis IFO 3849; conditions: IFO3849; Proteus mirabilis IFO 3849, Gram -
Experimental: as §1

[11] = tested on: Proteus vulgaris OX-19
Experimental: as §1

[12] = tested on: Pseudomonas aeruginosa E-2; conditions: E2; Pseudomonas aeruginosa E-2, Gram -
Experimental: as §1

[13] = tested on: Pseudomonas aeruginosa IFO 3445; conditions: Pseudomonas aeruginosa, IFO3445, Pseudomonas aeruginosa IFO 3445, Gram -
Experimental: as §1

[14] = tested on: Pseudomonas aeruginosa NCTC 10490; conditions: for MIC: Pseudomonas aeruginosa, NCTC10490, Pseudomonas aeruginosa NCTC 10490, Gram -
Experimental: as §1

[15] = tested on: Salmonella typhimurium IID 971; conditions: Salmonella typhimurium IID 971, Gram -; for MIC: Salmonella enterica, read-out: Minimum inhibitory concentration (MIC)
Experimental: as §1

[16] = tested on: Serratia marcescens IAM 1184; conditions: Serratia marcescens, IAM1184, Serratia marcescens IAM 1184, Gram -
Experimental: as §1

[17] = tested on: Shigella sonnei EW-33; conditions: EW33; Shigella sonnei EW-33, Gram -
Experimental: as §1

[18] = tested on: Staphylococcus aureus FDA 209P JC-1; conditions: FDA209P; Staphylococcus aureus FDA 209P JC-1, Gram +
Experimental: as §1

[19] = tested on: Staphylococcus aureus IID 803; conditions: IID803; Staphylococcus aureus IID 803, Gram +; read-out: Minimum inhibitory concentration (MIC)
Experimental: as §1

[20] = tested on: Staphylococcus epidermidis IAM-1296; conditions: for MIC: Staphylococcus epidermidis, IAM1296, Staphylococcus epidermidis IAM-1296, Gram +
Experimental: as §1

[21] = tested on: Streptococcus faecalis IID 682; conditions: Enterococcus faecalis, IID682, Streptococcus faecalis IID 682, Gram +
Experimental: as §1

[22] = tested on: Klebsiella pneumoniae PCI 602; conditions: for MIC: Klebsiella pneumoniae, PCI602, Klebsiella pneumoniae PCI 602, Gram -, read-out: Minimum inhibitory concentration (MIC)
Experimental: as §1

[23] = OX19, Proteus vulgaris OX-19, Gram -, read-out: Minimum inhibitory concentration (MIC)

## CN1CCN(c2c(F)cc3c(=O)c(C(=O)O)c4scc5n4c3c2OC5)CC1 [Compound (A), 9,1-Epoxymethano-7-fluoro-8-(4-methyl-1-piperazinyl)-5-oxo-5H-thiazolo[3,2-a]quinoline-4-carboxylic acid]
[1]
  MIC: 0.2 µg/mL (≈ 0.514 µM)
[2]
  MIC: 0.1 µg/mL (≈ 0.257 µM)
[3]
  MIC: 0.2 µg/mL (≈ 0.514 µM)
[4]
  MIC: 0.1 µg/mL (≈ 0.257 µM)
[5]
  MIC: 0.1 µg/mL (≈ 0.257 µM)
[6]
  MIC: 0.1 µg/mL (≈ 0.257 µM)
[7]
  MIC: 0.1 µg/mL (≈ 0.257 µM)
[8]
  MIC: 1.56 µg/mL
[9]
  MIC: 0.1 µg/mL (≈ 0.257 µM)
[10]
  MIC: 0.2 µg/mL (≈ 0.514 µM)
[11]; [23]
  MIC: 0.05 µg/mL (≈ 0.128 µM)
[12]
  MIC: 0.78 µg/mL (≈ 2 µM)
[13]
  MIC: 0.78 µg/mL (≈ 2 µM)
[14]
  MIC: 0.78 µg/mL (≈ 2 µM)
[15]
  MIC: 0.05 µg/mL (≈ 0.128 µM)
[16]
  MIC: 0.2 µg/mL (≈ 0.514 µM)
[17]
  MIC: 0.05 µg/mL (≈ 0.128 µM)
[18]
  MIC: 0.2 µg/mL
[19]
  MIC: 0.2 µg/mL (≈ 0.514 µM)
[20]
  MIC: 0.39 µg/mL
[21]
  MIC: 0.39 µg/mL

## O=C(O)c1c(=O)c2cc(F)c(N3CCNCC3)c3c2n2c(csc12)CO3 [Compound (C), 9,1-Epoxymethano-7-fluoro-8-(1-piperazinyl)-5-oxo-5H-thiazolo[3,2-a]quinoline-4-carboxylic acid]
[1]
  MIC: 0.78 µg/mL (≈ 2.08 µM)
[2]
  MIC: 0.2 µg/mL (≈ 0.533 µM)
[3]
  MIC: 0.2 µg/mL (≈ 0.533 µM)
[4]
  MIC: 0.1 µg/mL (≈ 0.266 µM)
[5]
  MIC: 0.2 µg/mL (≈ 0.533 µM)
[6]
  MIC: 0.1 µg/mL (≈ 0.266 µM)
[7]
  MIC: 0.1 µg/mL (≈ 0.266 µM)
[22]
  MIC: 0.05 µg/mL (≈ 0.133 µM)
[8]
  MIC: 3.13 µg/mL
[9]
  MIC: 0.1 µg/mL (≈ 0.266 µM)
[10]
  MIC: 0.2 µg/mL (≈ 0.533 µM)
[11]; [23]
  MIC: 0.1 µg/mL (≈ 0.266 µM)
[12]
  MIC: 0.78 µg/mL (≈ 2.08 µM)
[13]
  MIC: 0.78 µg/mL (≈ 2.08 µM)
[14]
  MIC: 0.39 µg/mL (≈ 1.04 µM)
[15]
  MIC: 0.05 µg/mL (≈ 0.133 µM)
[16]
  MIC: 0.39 µg/mL (≈ 1.04 µM)
[17]
  MIC: 0.05 µg/mL (≈ 0.133 µM)
[18]
  MIC: 0.39 µg/mL
[19]
  MIC: 0.39 µg/mL (≈ 1.04 µM)
[20]
  MIC: 0.78 µg/mL
[21]
  MIC: 0.78 µg/mL

## O=C(O)c1c(=O)c2cc(F)c(N3CCNCC3)c3c2n2c(csc12)CO3 [Compound (D), 9,1-Epoxymethano-7-fluoro-8-(1-piperazinyl)-5-oxo-5H-thiazolo[3,2-a]quinoline-4-carboxylic acid.hydrochloride.1/2hydrate]
[1]; Acinetobacter calcoaceticus AC 54, Gram -
  Minimum inhibitory concentration (MIC): 1.56 µg/mL
[4]; Enterobacter aerogenes ATCC 13048, Gram -
  Minimum inhibitory concentration (MIC): 0.20 µg/mL
[22]; Klebsiella pneumoniae PCI 602, Gram -
  Minimum inhibitory concentration (MIC): 0.025 µg/mL
[14]; Pseudomonas aeruginosa NCTC 10490, Gram -
  Minimum inhibitory concentration (MIC): 0.78 µg/mL
[15]
  Minimum inhibitory concentration (MIC): 0.10 µg/mL
[20]; Staphylococcus epidermidis IAM-1296, Gram +
  Minimum inhibitory concentration (MIC): 1.56 µg/mL

## CC1CN(c2c(F)cc3c(=O)c(C(=O)O)c4scc5n4c3c2OC5)CCN1 (centres unmarked) [Compound (E), 9,1-Epoxymethano-7-fluoro-8-(3-methyl-1-piperazinyl)-5-oxo-5H-thiazolo[3,2-a]quinoline-4-carboxylic acid.1/4hydrate]
[1]
  MIC: 0.78 µg/mL
[2]
  MIC: 0.1 µg/mL
[3]
  MIC: 0.78 µg/mL
[4]
  MIC: 0.1 µg/mL
[5]
  MIC: 0.2 µg/mL
[6]
  MIC: 0.1 µg/mL
[7]
  MIC: 0.2 µg/mL
[22]
  MIC: 0.025 µg/mL
[8]
  MIC: 3.13 µg/mL
[9]
  MIC: 0.1 µg/mL
[10]
  MIC: 0.2 µg/mL
[11]; Proteus vulgaris, OX19, read-out: Minimum inhibitory concentration (MIC)
  MIC: 0.05 µg/mL
[12]
  MIC: 0.78 µg/mL
[13]
  MIC: 1.56 µg/mL
[14]
  MIC: 0.78 µg/mL
[15]
  MIC: 0.1 µg/mL
[16]
  MIC: 0.39 µg/mL
[17]
  MIC: 0.1 µg/mL
[18]
  MIC: 0.2 µg/mL
[19]
  MIC: 0.2 µg/mL
[20]
  MIC: 0.78 µg/mL
[21]
  MIC: 0.78 µg/mL
